Results taken from patent US20160175318A1, “COMPOSITIONS COMPRISING ANTIBACTERIAL AGENT AND TAZOBACTAM” (WOCKHARDT LIMITED, priority 2013, published 2016).
Where two headings read alike, the source gives them in different places.

Tests used:
Test in all cases: MIC by agar dilution (CLSI) against highly resistant ESBL strain
Format in all cases: cell-based
[1] = test system: E. cloacae M-20
Experimental: (§1) The results on activity of cefepime and other cephalosporin antibacterial agents in combination with tazobactam against highly resistant ESBL strains are given Table 1. In a typical study, overnight grown bacterial cultures were diluted appropriately and inoculated on the agar media containing doubling dilutions of the antibiotic. Observation for growth or no growth was performed after 16-20 h of incubation at 35±2° C. in ambient air. The overall procedure was performed as per Clinical and Laboratory Standards Institute (CLSI) recommendations. This experimental was followed for Examples 2-4 and 6 below (Table 2-4 and 7).

[2] = test system: E. coli M50
Experimental: as §1

[3] = test system: E. coli 7MP
Experimental: as §1

[4] = test system: E. coli B123; settings: Escherichia coli
Experimental: as §1

[5] = test system: E. coli B-89
Experimental: as §1

[6] = E. cloacae M-20, with Tazobactam 4 mcg
[7] = E. cloacae M-20, with Tazobactam 8 mcg
[8] = E. coli 7MP, with Tazobactam 4 mcg
[9] = E. coli 7MP, with Tazobactam 8 mcg
[10] = B123, E. coli B123, with Tazobactam 4 mcg, read-out: MIC
[11] = B123, E. coli B123, with Tazobactam 8 mcg, read-out: MIC
[12] = E. coli B-89, with Tazobactam 4 mcg
[13] = E. coli B-89, with Tazobactam 8 mcg

CC(C)(O/N=C(\C(=O)N[C@@H]1C(=O)N2C(C(=O)[O-])=C(C[n+]3ccccc3)CS[C@H]12)c1csc(N)n1)C(=O)O [Ceftazidime]
MIC [1, 6]: >64 µg/mL
MIC [1, 7]: 64 µg/mL
MIC ([1]; Enterobacter cloacae, M20, 20 h): > 128 µg/mL
MIC ([2]; Escherichia coli, M50, 20 h, Tazobactam 0 mcg (antibiotic alone)): > 128 µg/mL
MIC ([2]; with Tazobactam 4 mcg): >64 µg/mL
MIC ([2]; with Tazobactam 8 mcg): >64 µg/mL
MIC [3, 8]: >64 µg/mL
MIC [3, 9]: >64 µg/mL
MIC ([3]; Escherichia coli, 7MP, 20 h): > 128 µg/mL
MIC ([4]; B123): > 128 µg/mL
MIC [4, 10]: > 64 µg/mL
MIC [4, 11]: > 64 µg/mL
MIC [5, 12]: >64 µg/mL
MIC [5, 13]: 64 µg/mL
MIC ([5]; Escherichia coli, B89, 20 h): > 128 µg/mL

COCC1=C(C(=O)O)N2C(=O)[C@@H](NC(=O)/C(=N\OC)c3csc(N)n3)[C@H]2SC1 [Cefpodoxime]
MIC [1, 6]: >64 µg/mL
MIC [1, 7]: >64 µg/mL
MIC ([1]; Enterobacter cloacae, M20, 20 h, E. cloacae M-20, Tazobactam 0 mcg (antibiotic alone), read-out: MIC): > 128 µg/mL
MIC ([2]; Escherichia coli, 20 h, Tazobactam 0 mcg (antibiotic alone), read-out: MIC): > 128 µg/mL
MIC ([2]; with Tazobactam 4 mcg): >64 µg/mL
MIC ([2]; with Tazobactam 8 mcg): >64 µg/mL
MIC [3, 8]: >64 µg/mL
MIC [3, 9]: >64 µg/mL
MIC ([3]; Escherichia coli, 7MP, 20 h, E. coli 7MP, Tazobactam 0 mcg (antibiotic alone), read-out: MIC): > 128 µg/mL
MIC ([4]; B123, E. coli B123, Tazobactam 0 mcg (antibiotic alone), read-out: MIC): > 128 µg/mL
MIC [4, 10]: > 64 µg/mL
MIC [4, 11]: > 64 µg/mL
MIC [5, 12]: >64 µg/mL
MIC [5, 13]: >64 µg/mL
MIC ([5]; Escherichia coli, B89, 20 h, E. coli B-89, Tazobactam 0 mcg (antibiotic alone), read-out: MIC): > 128 µg/mL
